Results reported in EP4772510A2, “BENZAZEPINONE COMPOUND AND USE THEREOF” (HANGZHOU BIO-SINCERITY PHARMA-TECHCO., LTD., priority 2023, dated 2025).

Target: T1, hERG ion channel (Homo sapiens, UniProt Q12809)
T1 construct: expressed in transfected cells
Experiment: Inhibition of hERG ion channel (whole-cell patch clamp, HEK293 cells)
Assay type: cell-based
Details: compound 10 µM, room temperature
Protocol: Example 58: Inhibition of hERG Ion Channel by Compounds
The hERG ion channel was stably expressed in HEK293 cells.
The test sample was dissolved in dimethyl sulfoxide (DMSO) to prepare a 9 mM stock solution, which was stored in a -20 °C freezer. On the testing day, the stock solution was further dissolved in the extracellular fluid to achieve the required concentrations. The concentration for electrophysiological test was 10 µM.
The extracellular fluid (mM) was: sodium chloride, 137; potassium chloride, 4; calcium chloride, 1.8; magnesium chloride, 1; HEPES, 10; glucose, 10. The pH was adjusted to 7.34 with sodium hydroxide. The extracellular fluid was stored at 2-8 °C.
The intracellular fluid (mM) was: potassium aspartate, 130; magnesium chloride, 5; ethylene glycol tetraacetic acid (EGTA), 5; N-2-hydroxyethylpiperazine-N'-2-ethanesulfonic acid (HEPES), 10. […]
For administration of the test samples, perfusion was carried out using a perfusion system utilizing the gravity of one's own. […] The mean of the peak current amplitudes recorded for the last three times during the initial recording served as the current peak of the negative control. After the initial current was stable, the test samples were administered starting from a low concentration until three recorded peak currents were again stable or the peak currents were "constant" after and before continuous administration for 5 min. […]

T1 sequence (Q12809 whole entry): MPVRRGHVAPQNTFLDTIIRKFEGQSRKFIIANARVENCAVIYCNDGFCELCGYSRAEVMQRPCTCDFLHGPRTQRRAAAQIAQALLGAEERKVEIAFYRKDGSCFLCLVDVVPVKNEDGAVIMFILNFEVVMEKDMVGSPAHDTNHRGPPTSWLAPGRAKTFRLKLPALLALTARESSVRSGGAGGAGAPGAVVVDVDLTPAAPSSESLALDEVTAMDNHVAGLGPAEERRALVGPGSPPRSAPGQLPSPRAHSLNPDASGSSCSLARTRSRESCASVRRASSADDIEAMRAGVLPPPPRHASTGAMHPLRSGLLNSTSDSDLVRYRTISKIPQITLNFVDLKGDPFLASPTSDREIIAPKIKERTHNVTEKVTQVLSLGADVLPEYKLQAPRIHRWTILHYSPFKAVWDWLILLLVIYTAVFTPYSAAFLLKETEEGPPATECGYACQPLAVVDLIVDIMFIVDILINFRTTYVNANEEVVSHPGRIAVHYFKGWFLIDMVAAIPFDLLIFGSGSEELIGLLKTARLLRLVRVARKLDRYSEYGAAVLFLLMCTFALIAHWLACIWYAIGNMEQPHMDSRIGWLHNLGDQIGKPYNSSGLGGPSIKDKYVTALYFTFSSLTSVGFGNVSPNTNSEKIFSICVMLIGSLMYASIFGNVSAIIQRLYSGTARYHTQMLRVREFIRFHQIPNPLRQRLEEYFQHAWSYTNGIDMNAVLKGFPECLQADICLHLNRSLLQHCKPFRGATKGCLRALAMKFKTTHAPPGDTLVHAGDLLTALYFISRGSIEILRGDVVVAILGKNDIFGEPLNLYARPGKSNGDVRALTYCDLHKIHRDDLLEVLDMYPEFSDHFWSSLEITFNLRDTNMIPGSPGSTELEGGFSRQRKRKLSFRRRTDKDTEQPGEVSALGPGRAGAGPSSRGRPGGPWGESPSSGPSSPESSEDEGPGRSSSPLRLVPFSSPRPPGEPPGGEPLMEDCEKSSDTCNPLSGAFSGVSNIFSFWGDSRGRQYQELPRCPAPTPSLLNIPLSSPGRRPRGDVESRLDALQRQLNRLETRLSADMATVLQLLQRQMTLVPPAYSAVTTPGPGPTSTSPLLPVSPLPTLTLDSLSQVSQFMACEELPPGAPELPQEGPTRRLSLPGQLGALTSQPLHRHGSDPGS

Molecule | Percentage blocking rate of hERG channel
O=C(NC1CCc2cc(C#Cc3cnn(C(F)F)c3)cc3c2N(CC3)C1=O)c1ncn(Cc2c(F)cccc2F)n1 (centres unmarked) [III-17, 1-(2,6-difluorobenzyl)-N-(9-((1-(difluoromethyl)-1H-pyrazol-4-yl)ethynyl)-4-oxo-1,2,3,4,6,7-hexahydroazepino[3,2,1-hi]indol-3-yl)-1H-1,2,4-triazole-3-carboxamide] | 38.89%
N-(9-((1-(difluoromethyl)-1H-pyrazol-4-yl)ethynyl)-4-oxo-1,2,3,4,6,7-hexahydroazepino[3,2,1-hi]indol-3-yl)-1-(4-methylbenzyl)-1H-1,2,4-triazole-3-carboxamide [III-25] | 39.58%
